Assays:
[1] = Kinetics study of fluorophore (AMC) release, fluorescence, with DM tetrazine; conditions: PBS pH=7.2, 37° C.
Experimental: (§1) A procedure adapted from prior art was followed (Fan, X. et al., Optimized tetrazine derivatives for rapid bioorthogonal decaging in living cells. Angew. Chem. 2016, 128 (45), 14252-14256.)
(§2) Stock solutions (all in DMSO) • Stock A (R): E-022a (10 mmolar) • Stock A (NR): E-022b (10 mmolar) • Stock B (DM): 3,6-Dimethyl-1,2,4,5-tetrazine (DM) (20 mmolar) • Stock B (BP): 3,6-Di-2-pyridyl-1,2,4,5-tetrazine (BP) (20 mmolar) • Stock PC: 7-Amino-4-methylcoumarin (10 mmolar) 2.5 μL of the tetrazine stock (DM or BP) was mixed with 395.5 μL of PBS (pH=7.2). 2 μL of the TCO stock (A (R) or A (NR)) was added to this. The reaction mixtures were incubated at 37° C. under mixing (300 rpm). Subsequently, the fluorescence (F1) was measured (ex: 380 nm, em. 450 nm) at certain time points after the addition of the TCO by aliquoting 30 μL in a 384 wells plate (Greiner, black non-binding flat bottom) and directly measuring with a Tecan Spark plate-reader. As control experiment the maximum amount of released AMC was measured (F2, Stock PC without tetrazine or TCO). […] The release efficiency (%) was calculated: F1/F2×100%. All experiments were executed in triplo and the data was processed using GraphPad Prism (version 9.0). The Kelim. values were determined by first-order exponential one phase decay approximations. […] For BP this value was 2.96*10^−6S^−1.

[2] = Kinetics study of doxorubicin release by HPLC/LCMS; conditions: PBS pH=7.2, 37° C., directly after addition of tetrazine
Experimental: Stock solutions (all in DMSO) • Stock E-025a: E-025a (10 mmolar) • Stock Ttz: 3,6-dimethyl-1,2,4,5-tetrazine (XA, 20 mmolar) Procedure: 100 μL of the TCO-Dox stock was added to 900 μL of PBS (pH=7.2) and HPLC analysis was done which only indicated starting material (t=13.08 min). Hereafter the reaction was incubated at 37° C. under mixing (300 rpm) and 500 μL of the Ttz stock was added. At certain time points after the addition of the Ttz the reaction mixture was analyzed by aliquoting 200 μL and analysis by HPLC/LCMS.

[3] = Kinetics study of fluorophore (AMC) release, fluorescence, with BP tetrazine; conditions: PBS pH=7.2, 37° C., first-order one phase fit
Experimental: as §1, §2

[4] = Stability test of TCO in deuterated PBS buffer at 37° C. followed by 1H-NMR; format: physicochemical; conditions: covered from light
Experimental: An NMR tube was charged with a solution of E-04a (41 mg) in deuterated PBS buffer (500 μl). The NMR sample was placed in a water bath at 37° C. while being covered from light by aluminum foil.

[5] = 19F-NMR kinetic study of click-to-release reaction (release of PFP)
Experimental: FIG. 2: ^19F-NMR kinetic study of the click-to-release reaction of 20 mM TCO (E-03a) with 3,6-di(pyridin-2-yl)-1,2,4,5-tetrazine at 20° C.
The ^19F NMR (377 MHz) spectrum of an NMR-tube filled with a solution of E-03a (5 mg, 1.0 equiv, 11.9 μmol) in CDCl3 (500 μl) was measured. Next, a solution of 3,6-di(pyridin-2-yl)-1,2,4,5-tetrazine (3.1 mg, 1.1 equiv, 13 μmol) in CDCl3 (100 μl) was added to the NMR tube. The tube was vigorously shaken and placed back in the NMR apparatus. The sample was measured within two minutes after the addition of the second compound. Every 48 seconds a measurement (number of scans: 4, relaxation delay: 5.8 see, range: −147.0 to −178.5 ppm) was taken of the sample. After 160 minutes the measurements were stopped.
Only after elevating the temperature to +10° C., the pentafluorophenyl carbonate was released from the conjugated product. Release of payload from compounds of the invention was not only found to be fast, but also complete. […] The fastest payload release observed with their compounds afforded less than 20% release over 250 minutes.

[6] = Kinetics study of TCO-Tz click reaction by UV spectroscopy (540 nm); conditions: MeCN, 20° C.
Experimental: FIG. 1: The kinetics of TCO E-02a and 3,6-di(pyridin-2-yl)-1,2,4,5-tetrazine with a concentration of 10 and 50 μM at 20° C. in MeCN.
The reaction rate in a TCO-Tz click reaction of E-02a was measured under similar conditions as described in Versteegen et al., Angewandte Chemie International Edition 2013, 52 (52), 14112-14116. The second order reaction constant of the reaction between 3,6-di(pyridin-2-yl)-1,2,4,5-tetrazine and E-02a was determined under second order conditions in MeCN at 20° C. by UV spectroscopy. A cuvette was filled with MeCN (2.8 mL) and equilibrated at 20° C. A stock solution of tetrazine in DMSO (100 μl) was added to the cuvette. The absorption of the tetrazine moiety was measured at 540 nm. Next, the cuvette was removed from the apparatus to add a stock solution of E-02a in DMSO (100 μl) and briefly mixed the solution by shaking the cuvette before placing it back into the apparatus. The absorption at 540 nm was measured for 15 minutes. From this absorption at 540 nm, the concentration of tetrazine was calculated using a molar absorption coefficient of ε=430 M^−1 cm^−1. […] TCO reactions known from the prior art (Versteegen et al., Angewandte Chemie International Edition 2013, 52 (52), 14112-14116, DOI: 10.1002/anie.201305969) were assessed at 83.3 μM and afforded a lower rate of 62, 5 M^−1s^−1 under similar conditions.

CCOC(=O)[C@H]1[C@@H]2CCC(OC(=O)Nc3ccc4c(C)cc(=O)oc4c3)/C=C\C[C@@H]21 (stereo partly drawn) [E-022b, COOEt-Exo-Equatorial-TCO-AMC]
AMC release compared with E-022a ([1]; tetrazine (DM or BP) not specified): slower

CCOC(=O)[C@H]1[C@@H]2CC[C@@H](OC(=O)N[C@H]3C[C@H](O[C@H]4C[C@](O)(C(=O)CO)Cc5c(O)c6c(c(O)c54)C(=O)c4c(OC)cccc4C6=O)O[C@@H](C)[C@@H]3O)/C=C\C[C@@H]21 [E-025a, COOEt-Exo-Axial-TCO-PNP]
release of doxorubicin after addition of the tetrazine [2]: almost instant release

CCOC(=O)[C@H]1[C@@H]2CC[C@@H](OC(=O)Nc3ccc4c(C)cc(=O)oc4c3)/C=C\C[C@@H]21 [E-022a, COOEt-Exo-Axial-TCO-AMC]
Kelim. value of AMC release [3]: 2.96*10^−6 S^−1
Kelim. value of AMC release ([1]; DM tetrazine, first-order one phase fit): 8.15*10^−5 S^−1

O=C(O)[C@H]1[C@@H]2CC[C@@H](O)/C=C/C[C@@H]21 [E-04a, (1S,5R,8R,9S, E)-5-hydroxybicyclo[6.1.0]non-3-ene-9-carboxylic acid]
changes in the 1H-NMR spectrum after 7 days [4]: no changes

CCOC(=O)[C@H]1[C@@H]2CC[C@@H](OC(=O)Oc3c(F)c(F)c(F)c(F)c3F)/C=C/C[C@@H]21 [E-03a, ethyl (1S,5R,8R,9S, E)-5-(((perfluorophenoxy)carbonyl)oxy)bicyclo[6.1.0]non-3-ene-9-carboxylate]
release of PFP (pentafluorophenolate) after 20 minutes ([5]; 20 mM TCO, CDCl3, 20° C., 1.1 equiv tetrazine): Almost complete release
release upon tautomerization from the click product ([5]; lower temperatures, 40 mM, dipyridyl tetrazine): instantaneous
formation of pentafluorophenol from click conjugate ([5]; −20° C., 40 mM, dipyridyl tetrazine): did not show any formation of pentafluorophenol

CCOC(=O)[C@H]1[C@@H]2CCC(OC(=O)Oc3c(F)c(F)c(F)c(F)c3F)C=CC[C@@H]21 (stereo in doubt) [E-03b, ethyl (1S,5R,8R,9S, E)-5-(((perfluorophenoxy)carbonyl)oxy)bicyclo[6.1.0]non-3-ene-9-carboxylate]
release rate compared with E-03a ([5]; E-03b used instead of E-03a): several factors slower

CCOC(=O)C1C2CC=CC(O)CCC21 (single isomer, unassigned) [E-02a]
second order rate constant k2 (reaction rate) of click reaction ([6]; concentration 10 μM): 249 M⁻¹ s⁻¹
second order rate constant k2 (reaction rate) of click reaction ([6]; concentration 50 μM): 437 M⁻¹ s⁻¹
